{
  "source": "patent US12576107B2",
  "about": "“Methods of treating chronic inflammatory diseases” (METIMEDI PHARMACEUTICALS CO., LTD., priority 2018, dated 2026)",
  "key": {"TLR-4": {"test_system": "TLR-4", "experiment": "Western blot of TLR-4 in HepG2 cells", "assay_type": "cell-based, Human", "conditions": "2.5 mM; HepG2 cells (liver epithelium); hypoxia", "protocol": "(§1) Human Hepatocellular carcinoma cell line, HepG2, was purchased from American Type Culture Collection (Manassas, VA, USA). The HepG2 cells were maintained in RPMI 1640 containing 10% fetal bovine serum (Life Technologies, Gaithersburg, MD, USA), 100 IU/ml penicillin, and 100 μg/ml streptomycin (Welgene, Daegu, South Korea).\nTo prepare whole cell lysate, cells were lysed with lysis buffer (1% NP-40, 0.25% sodium deoxycholate, 150 mM NaCl, 1 mM EDTA, 1% Triton X-100, 50 mM Tris-HCl (pH 7.4), 10% Glycerol) with protease inhibitor cocktail (Roche, Basel, Switzerland) and phosphatase inhibitors (NA3VO4 1 mM, NaF 100 mM). Then, protein concentration was measured using the Bicinchoninic acid (BCA) assay kit (Thermo Scientific, Waltham, MA). Whole cell or nuclear lysates were transferred onto polyvinylidene fluoride membranes (Merck Millipore, Billerica, MA, USA). After blocking in 5% non-fat milk (Bio-Rad, Hercules, CA, USA) for 1 h, the membranes were incubated overnight at 4° C. with primary antibody diluted in TBST containing 100 mM Tris-HCl (pH 7.5), 1.5 M NaCl, and 0.5% Tween-20 obtained from Sigma-Aldrich, to which 5% BSA and 0.1% sodium azide (Sigma-Aldrich) had been added. Specific primary antibodies to HIF-1α (1:1000), HIF-2α (1:1000), LDH-A (1:1000), LDH-B (1:1000), TLR-4 (1:1000), NF-κB (1:1000), VEGF (1:1000), α-tubulin (1:1000), Actin (1:1000), and GAPDH (1:5000). […]"}, "lactate dehydrogenase A": {"test_system": "lactate dehydrogenase A", "experiment": "Immunocytochemistry of lactate dehydrogenase A in ARPE-19 cells", "assay_type": "cell-based, Human", "conditions": "2.5 mM, normoxia", "protocol": "as §1, with “retinal pigment epithelium” for “Hepatocellular carcinoma”, “ARPE-19,” for “HepG2,”, “ARPE-19” for “HepG2”, “RPMI1640” for “RPMI 1640”\nARPE-19 and SK-N-SH cells were fixed on bio-coated coverslips (BD bioscience, San Jose, CA, USA) by 4% PFA for 20 min and then incubated with the primary antibodies for 15 h. The primary antibodies were as follows: HIF-1a (1:300, BD Biosciences, San Jose, CA, USA); LDH-A (1:300, Santa Cruz Biotechnology, Santa Cruz, CA, USA); LDH-B (1:300, Santa Cruz Biotechnology, Santa Cruz, CA, USA); NF-κB (1:300, Santa Cruz Biotechnology, Santa Cruz, CA, USA); TLR-4 (1:300, Santa Cruz Biotechnology, Santa Cruz, CA, USA); apoE (1:200, Santa Cruz Biotechnology, Santa Cruz, CA, USA). After PBS wash, the cells were incubated with anti-mouse secondary biotinylated antibody (1:2000, Vector Laboratorie, Burlingame, CA, USA) and visualized with streptavidin conjugated to Fluorescein (Vector Laboratorie, Burlingame, CA, USA). […] Confocal fluorescence images were obtained with confocal laser scanning microscopy (LSCM, Nikon A1+, Tokyo, Japan) under a 60× oil immersion lens."}, "laser-induced AMD mice": {"test_system": "laser-induced AMD mice", "experiment": "Laser-induced age-related macular degeneration (AMD) animal model", "assay_type": "in vivo, C57BL/6 mice", "protocol": "Six-week-old female C57BL/6 mice (20-25 g) were purchased from Orient (Charles River Korea, Seoul, Korea). All animals were maintained in a 12-hour light/dark cycle (light on, 08:00) at 22° C.-25° C. with free access to food and water. The mice were placed individually in an induction chamber, and anesthesia was induced with 2% isoflurane (HANA PHARM CO., Seoul, Korea). The lesions were induced in each eye of the mice by laser photocoagulation (SDL405-700, SD Laser, China). The laser pulses were from blue laser (wavelength, 405 nm; SD Laser). Laser parameters were 100 μm spot size, 700 mw power and 1 s exposure time. A total of 15 mice were randomized into three groups: (i) not subjected to laser induction (n=3); (ii) subjected to laser burns and injected with the vehicle buffer (n=5); and (iii) CaLa, 2 mg/kg/day (B.I.D) (n=7). CaLa treatment was started the days after laser photocoagulation and was treated subcutaneously for 14 days. (33, 34)\nThe histopathologic examination of retinal lesions was performed 2 weeks after 2 mg/kg of CaLa was administered subcutaneously. The enucleated eyes were fixed with 4% paraformaldehyde (PFA) for 24 h at 4° C., and eyes obtained by removing the anterior segments were washed three times in phosphate-buffered saline. The fixed flat-mounts were dehydrated in a graded series of ethanol and embedded in paraffin. […] The choroidal lesion and neovascularization on the flat-mounts were observed by confocal microscopy (Carl Zeiss, Oberkochen, Germany).\nAnimals. […] Six-week-old C57BL mice were purchased from Orient (Charles River Korea, Seoul, Korea). All animals were maintained in a 12-hour light/dark cycle (light on, 08:00) at 22-25° C. with free access to food and water.\nCalcium lactate was purchased from Sigma Aldrich (St. Louis, MO, USA).\nAnimal model for ocular disease. The mice were placed individually in an induction chamber, and anesthesia was induced with 2% isoflurane (HANA PHARM CO., Seoul, Korea). The laser-induced rupture of Bruch's membrane was induced in both eyes of mice by laser photocoagulation (SDL405-700, SD Laser, China). […]"}},
  "data": [
    {"smiles": "CC(O)C(=O)[O-].CC(O)C(=O)[O-].[Ca+2]", "note": "(centres unmarked) [calcium lactate]", "values": [
      {"measurement": "inflammatory factor (TLR-4), Western blot", "setting": "TLR-4", "value": "decreased"},
      {"measurement": "lactate dehydrogenase A, immunocytochemistry", "setting": "lactate dehydrogenase A", "value": "decreased"},
      {"measurement": "choroidal lesion (fluorescence, flat-mount)", "setting": "laser-induced AMD mice; 2 mg/kg daily subcutaneous", "value": "restored"},
      {"measurement": "choroidal neovascularization (fluorescence, flat-mount)", "setting": "laser-induced AMD mice; 2 mg/kg daily subcutaneous", "value": "restored"},
      {"measurement": "morphology of the retinal pigment epithelium (H&E)", "setting": "laser-induced AMD mice; 2 mg/kg subcutaneous, choroidal flat-mount", "value": "recovered"}
    ]}
  ]
}
